Measurements from ChEMBL document CHEMBL1201862, “PubChem BioAssay data set” (2004).
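How tested: cells in 96-well plates exposed to compound for 48 hours at five concentrations. GI50 = concentration required for 50% inhibition of growth.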 The source made the active and inactive calls. Rule as the data show it: active = GI50 up to about 1.1 µM and inactive = higher.

Key:
Experiment in all cases: DTP human tumour cell line panel, 48 h
786-0 = test system: 786-0
A498 = test system: A498
A549 = test system: A549
ACHN = test system: ACHN
BT-549 = test system: BT-549
CAKI-1 = test system: CAKI-1
CCRF-CEM = test system: CCRF-CEM
COLO 205 = test system: COLO 205
DU-145 = test system: DU-145
EKVX = test system: EKVX
HCC 2998 = test system: HCC 2998
HCT-116 = test system: HCT-116
HCT-15 = test system: HCT-15
HL-60 = test system: HL-60
HOP-62 = test system: HOP-62
HOP-92 = test system: HOP-92
HT-29 = test system: HT-29
Hs-578T = test system: Hs-578T
IGROV-1 = test system: IGROV-1
K562 = test system: K562
KM12 = test system: KM12
LOX IMVI = test system: LOX IMVI
M14 = test system: M14
MCF7 = test system: MCF7
MDA-MB-231 = test system: MDA-MB-231
MDA-MB-435 = test system: MDA-MB-435
MDA-N = test system: MDA-N
MOLT-4 = test system: MOLT-4
Malme-3M = test system: Malme-3M
NCI-H226 = test system: NCI-H226
NCI-H23 = test system: NCI-H23
NCI-H460 = test system: NCI-H460
NCI-H522 = test system: NCI-H522
NCI/ADR-RES = test system: NCI/ADR-RES
OVCAR-3 = test system: OVCAR-3
OVCAR-4 = test system: OVCAR-4
OVCAR-5 = test system: OVCAR-5
OVCAR-8 = test system: OVCAR-8
PC-3 = test system: PC-3
RPMI-8226 = test system: RPMI-8226
RXF 393 = test system: RXF 393
SF-268 = test system: SF-268
SF-295 = test system: SF-295
SF-539 = test system: SF-539
SK-MEL-28 = test system: SK-MEL-28
SK-MEL-2 = test system: SK-MEL-2
SK-MEL-5 = test system: SK-MEL-5
SK-OV-3 = test system: SK-OV-3
SN12C = test system: SN12C
SNB-19 = test system: SNB-19
SNB-75 = test system: SNB-75
SR = test system: SR
SW-620 = test system: SW-620
T47D = test system: T47D
TK-10 = test system: TK-10
U-251 = test system: U-251
UACC-257 = test system: UACC-257
UACC-62 = test system: UACC-62
UO-31 = test system: UO-31

N#Cc1ccc(C(=O)/C=C/c2ccc(O)c(O)c2)cc1
GI50 (786-0): > 38.4 µM (inactive) | GI50 (A498): 17.7 µM (inactive) | GI50 (A549): 15.3 µM (inactive) | GI50 (ACHN): 17.3 µM (inactive) | GI50 (BT-549): 12.6 µM (inactive) | GI50 (CAKI-1): 15.3 µM (inactive) | GI50 (CCRF-CEM): 1.4 µM (inactive) | GI50 (COLO 205): 16.7 µM (inactive) | GI50 (DU-145): 16.3 µM (inactive) | GI50 (EKVX): 17.2 µM (inactive) | GI50 (HCC 2998): 14.8 µM (inactive) | GI50 (HCT-116): 10.5 µM (inactive) | GI50 (HCT-15): 15.5 µM | GI50 (HL-60): 2.5 µM (inactive) | GI50 (HOP-62): 17.9 µM (inactive) | GI50 (HOP-92): 15.5 µM (inactive) | GI50 (HT-29): 16.4 µM (inactive) | GI50 (Hs-578T): 24.4 µM (inactive) | GI50 (IGROV-1): 12.8 µM (inactive) | GI50 (K562): 7.1 µM (inactive) | GI50 (KM12): 13.9 µM (inactive) | GI50 (LOX IMVI): 11.5 µM (inactive) | GI50 (M14): 18.2 µM (inactive) | GI50 (MCF7): 13 µM (inactive) | GI50 (MDA-MB-231): 15.6 µM (inactive) | GI50 (MDA-MB-435): 14.4 µM (inactive) | GI50 (MDA-N): 14.9 µM (inactive) | GI50 (MOLT-4): 8.38 µM (inactive) | GI50 (Malme-3M): 15.7 µM (inactive) | GI50 (NCI-H226): 20.2 µM (inactive) | GI50 (NCI-H23): 16.9 µM (inactive) | GI50 (NCI-H460): 16.1 µM (inactive) | GI50 (NCI-H522): 1.53 µM (inactive) | GI50 (NCI/ADR-RES): > 43 µM (inactive) | GI50 (OVCAR-3): 15.8 µM (inactive) | GI50 (OVCAR-4): 12.4 µM (inactive) | GI50 (OVCAR-5): 17.7 µM (inactive) | GI50 (OVCAR-8): > 40.4 µM (inactive) | GI50 (PC-3): 15.3 µM (inactive) | GI50 (RPMI-8226): 3.1 µM (inactive) | GI50 (RXF 393): 16.8 µM (inactive) | GI50 (SF-268): 14.1 µM (inactive) | GI50 (SF-295): 17.7 µM (inactive) | GI50 (SF-539): 15.6 µM (inactive) | GI50 (SK-MEL-28): 15.5 µM (inactive) | GI50 (SK-MEL-2): 17.3 µM (inactive) | GI50 (SK-MEL-5): 15.2 µM (inactive) | GI50 (SK-OV-3): 21.9 µM (inactive) | GI50 (SN12C): 15.5 µM (inactive) | GI50 (SNB-19): 15.8 µM (inactive) | GI50 (SNB-75): 17.4 µM (inactive) | GI50 (SR): 1.57 µM (inactive) | GI50 (SW-620): 13.2 µM (inactive) | GI50 (T47D): 16.3 µM (inactive) | GI50 (TK-10): 14.1 µM (inactive) | GI50 (U-251): 13.4 µM (inactive) | GI50 (UACC-257): 16.2 µM (inactive) | GI50 (UACC-62): 17.1 µM (inactive) | GI50 (UO-31): 12.4 µM (inactive)

CCOC(=O)C1C(=O)CC(O)(c2ccccc2)C(C(=O)OCC)C1c1ccc(OC)cc1 (stereo not drawn)
GI50 (786-0): 22.6 µM (inactive) | GI50 (A498): 42.2 µM (inactive) | GI50 (A549): 47 µM (inactive) | GI50 (ACHN): 43.4 µM (inactive) | GI50 (BT-549): 34.7 µM (inactive) | GI50 (CAKI-1): 44.8 µM (inactive) | GI50 (CCRF-CEM): 18.2 µM (inactive) | GI50 (COLO 205): 12.8 µM (inactive) | GI50 (DU-145): 47.3 µM (inactive) | GI50 (EKVX): > 50.7 µM (inactive) | GI50 (HCC 2998): 37.9 µM (inactive) | GI50 (HCT-116): 4.94 µM (inactive) | GI50 (HCT-15): 19.4 µM | GI50 (HL-60): 10.5 µM (inactive) | GI50 (HOP-62): 25.5 µM (inactive) | GI50 (HOP-92): 15.3 µM (inactive) | GI50 (HT-29): 6.82 µM (inactive) | GI50 (Hs-578T): 0.695 µM (active) | GI50 (IGROV-1): 20 µM (inactive) | GI50 (K562): 5.27 µM (inactive) | GI50 (KM12): 6.31 µM (inactive) | GI50 (LOX IMVI): 18.7 µM (inactive) | GI50 (M14): 10.4 µM (inactive) | GI50 (MCF7): 27 µM (inactive) | GI50 (MDA-MB-231): 22.2 µM (inactive) | GI50 (MDA-MB-435): 3.24 µM (inactive) | GI50 (MDA-N): 3.18 µM (inactive) | GI50 (MOLT-4): 17.5 µM (inactive) | GI50 (Malme-3M): 26.2 µM (inactive) | GI50 (NCI-H226): 32.4 µM (inactive) | GI50 (NCI-H23): 31 µM (inactive) | GI50 (NCI-H460): 18.2 µM (inactive) | GI50 (NCI-H522): 5.69 µM (inactive) | GI50 (NCI/ADR-RES): 19.6 µM (inactive) | GI50 (OVCAR-3): 12.4 µM (inactive) | GI50 (OVCAR-4): 28.6 µM (inactive) | GI50 (OVCAR-5): 50.6 µM (inactive) | GI50 (OVCAR-8): 33.4 µM (inactive) | GI50 (PC-3): 16.4 µM (inactive) | GI50 (RPMI-8226): 13.8 µM (inactive) | GI50 (RXF 393): 13.6 µM (inactive) | GI50 (SF-268): 30.1 µM (inactive) | GI50 (SF-295): 3.24 µM (inactive) | GI50 (SF-539): 15.6 µM (inactive) | GI50 (SK-MEL-28): 28.8 µM (inactive) | GI50 (SK-MEL-2): 20.1 µM (inactive) | GI50 (SK-MEL-5): 19.1 µM (inactive) | GI50 (SK-OV-3): 15.8 µM (inactive) | GI50 (SN12C): 40.7 µM (inactive) | GI50 (SNB-19): 22.5 µM (inactive) | GI50 (SNB-75): 0.479 µM (active) | GI50 (SR): 4.23 µM (inactive) | GI50 (SW-620): 12.2 µM (inactive) | GI50 (T47D): 42.2 µM (inactive) | GI50 (TK-10): 65.5 µM (inactive) | GI50 (U-251): 16 µM (inactive) | GI50 (UACC-257): 58.3 µM (inactive) | GI50 (UACC-62): 21.9 µM (inactive) | GI50 (UO-31): 61.2 µM (inactive)
